# Patent US10556860B2, “hTERT modulators and methods of use” (Arizona Board of Regents on Behalf of the University of …, priority 2015, dated 2020)
# Assays:
# [1] = system: G124/125A mutant hTERT G-quadruplex; assay: CD melting (Tm), G124/125A mutant; format: binding, human; settings: 2 equiv
# Procedure: Circular dichroism. Oligomers of WT, G124A, G124/125A, G138/139A and G146A were synthesized and HPSF-purified by MGW Operon, Inc. For CD analysis, oligomers (5 μM) in a buffer containing 10 mM Tris-HCl (pH 7.5) and 140 mM KCl were annealed. For the CD analysis of the complex of oligomers and compounds, oligomers (5 μM) in a buffer containing 10 mM Tris-HCl (pH 7.5) and 5 mM KCl for GTC365 or 1 mM KCl for BRACO-19 were annealed. Oligomers and GTC365 or BRACO-19 were incubated overnight at room temperature. For the full-length of C-rich strand, the oligomer in a buffer of 10 mM Na cacodylate (pH 6.6) was annealed and then incubated with GTC365 overnight. CD analysis was conducted on a Jasco 810 spectropolarimeter (Jasco, Easton, Md.) using a quartz cell with 1 mm of path length, 1 nm of band width, and 1 s of response time for spectra at 20° C. Melting curves for the determination of Tm were obtained by recording ellipticity at 262 nm with increasing temperatures from 25° C. to 95° C. at a rate of 1.6° C./min. Tm of the C-rich strand with GTC365 was obtained from the CD signal at 286 nm within 10-60° C.
# CD and DMS footprinting analyses were conducted to characterize the binding of GTC365 and BRACO-19 to the 5-12 G-quadruplex. […] To verify the effects of compounds on the thermal stability of the WT and the mutant G-quadruplexes, Tms were determined by CD. […]
# BAX/BCL2 mRNA ratio = assay: BAX/BCL2 ratio in MCF7 cells; format: cell-based, human; settings: 0.5-1 μM, 72 h, relative to DMSO
# Procedure: FIG. 11 is a graph showingincrease of BAX/BCL2 ratios by GTC365 in mRNA levels. MCF7 cells were treated with GTC365 for 72 h and then subjected to qPCR and immunoblot analysis. The relative ratio of BAX/BCL2 was determined compared with a DMSO-treated sample.
# Indeed at 0.5-1 μM, the BAX/BCL2 ratio was increased by over 2-fold and the capase-3 activity was increased by 47% (FIGS. 11 and 12).
# G124A 5-12 G-quadruplex = assay: CD kinetics, temperature-jump, G124A; format: biochemical, human; settings: 2 equiv
# Procedure: FIGS. 10A and 10B are a set of graphs showing (A) comparison of kinetics of initial folding rate of the WT 5-12 G-quadruplex with GTC365 and BRACO-19 by the temperature-jump method. (B) Enhanced initial folding rate of the 5-12 G-quadruplexes carrying different hTERT mutants by GTC365. The time-course CD signal of preheated oligo with compound or DMSO in a buffer containing 10 mM Tris-HCl (pH 7.5) and 5 mM KCl was monitored at 262 nm and 25° C.
# For the kinetics analysis using the temperature-jump method, theoligo in a buffer containing 10 mM Tris-HCl (pH 7.5) was heated forl min at 95° C., and then a mixture of KCl and compound was addedand incubated for 1 min. Meanwhile, the CD cuvette was also heatedat 95° C. As soon as the sample in the CD cuvette at the hightemperature was placed in the CD chamber, a time-dependent CDsignal at 262 nm was recorded immediately. The initial folding ratewas determined by one-phase association curve fitting (eq 1) of thekinetics curve using GraphPad Prism 5: Y=Y0+(Plateau−Y0)*(1−e^−kx) (1) where Y is the CD signal at any time point x, Y0 is the Y value whentime (x) is zero, plateau is the Y value at infinite time, and k is the rateconstant.
# To evaluate the comparative effects of GTC365 relative to BRACO-19 on the cooperative folding process, we carried out two different experiments. […]
# [2] = biological target: G124/125A 5-12 G-quadruplex of hTERT core promoter; assay: FRET assay for Kd, G124/125A probe; format: binding, human
# Procedure: FRET assay for compound screening and determination of Kd value. FRET probes of WT, G124/125A, and G146A of the 5-12 G-quadruplex were synthesized and labeled with FAM (Ex. 490 nm/Em. 520 nm) and TAMRA (Ex. 560 nm/Em. 580 nm) at each end by MGW Operon Inc. The WT probe (50 nM) was annealed in a buffer containing 10 mM Tris-HCl (pH 7.5) and 5 mM KCl by heating at 95° C. for 5 min and slowly cooling to room temperature. Compounds (50 μM) and probe were incubated for 1 h at room temperature. The same volume of DMSO served as a control. For Kd value determination, the WT, G124/125A, and G146A probes were annealed, and then several concentrations of compound were treated for 1 h at room temperature. Dose-dependent fluorescence intensity at 520 nm was measured by a microplate reader (BioTek Synergy HT). The data were corrected with the blank signal of buffer and compound. The relative fluorescence intensity compared to DMSO was used for binding curve fitting to determine Kd value using GraphPad Prism software.
# The hTERT core promoter region includes 12 runs of consecutive guanines that form two G-quadruplexes in tandem on the G-rich strand. […] When the G-quadruplex is folded, two fluorophores are in proximity, which leads to a decrease in FAM fluorescence. […]
structure (smiles),measurement,setting,value
N=C(N)NCCCS(=O)(=O)Nc1ccc(Nc2c3ccccc3nc3cc([N+](=O)[O-])ccc23)cc1 [GTC365],Tm more increased compared to the WT,[1],6-7 °C
same,increase of BAX/BCL2 ratio,BAX/BCL2 mRNA ratio,over 2 fold
same,increase of initial folding rate,G124A 5-12 G-quadruplex,0.049 s⁻¹
same,Kd,[2],~400 nM
